From patent US6387933B1, “Insecticidal compositions and insecticidal methods” (Sumitomo Chemical Company, Limited, priority 2001, dated 2002)

Legend:
[1] = test system: silverleaf whiteflies; test: Test Example 2: spray on cabbage seedlings infested with silverleaf whiteflies; type: in vivo; conditions: 8 days after spray
Method: (§1) Cabbage seedlings planted in 3 ounces plastic cup were placed in a net cage containing many living silverleaf whiteflies for 24 hours, so that many silverleaf whiteflies became parasitic on the cabbage seedlings. A designated amount of each of acetamiprid on the market (commercial name, Mospilan water-soluble powder: produced by Nippon Soda), pyriproxyfen on the market (commercial name, Lano emulsifiable concentrate: produced by Sumitomo Chemical) and a mixture of acetamiprid and pyriproxyfen on the market were diluted with water, and then sprayed over the cabbage seedlings with spray gun. The number of silverleaf whiteflies (i.e., the total number of adults and larvae) surviving on the cabbage seedlings was examined just before and after 8 days from the treatment.

[2] = test system: silverleaf whiteflies; test: Test Example 1: spray on cabbage seedlings infested with silverleaf whiteflies; type: in vivo; conditions: 50 ppm; adults and larvae on cabbage seedling, 8 days after spray
Method: as §1

Row | SMILES | Number of surviving insects/pot after 8 days ([1]; 5 ppm) [insects/pot] | Number of surviving insects/pot after 8 days ([1]; 10 ppm) [insects/pot] | Number of surviving insects/pot after 8 days ([1]; 50 ppm) [insects/pot] | Number of surviving insects/pot after 8 days [2] [insects/pot]
1 | C/C(=N\C#N)N(C)Cc1ccc(Cl)nc1 [acetamiprid, (E)-N^1-[(6-chloro-3-pyridyl)methyl]-N^2-cyano-N^1-methylacetamidine] | 41 | 16 | 24 | 69
2 | CC(COc1ccc(Oc2ccccc2)cc1)Oc1ccccn1 (centres unmarked) [pyriproxyfen, 4-phenoxyphenyl 2-(2-pyridyloxy)propyl ether] | 41 | 114 | 69 | 21
